Measurements taken from patent US7053249B2, “Metal chelates and methods of using them for time-resolved fluorescence” (IDEXX Laboratories, Inc., priority 2002, dated 2006).

Assays:
[1] = pH range of stable chelate formation; format: physicochemical; conditions: Eu chelate
Source text: (§1) As mentioned earlier, it is necessary to form the enolate of the dicarbonyl compound for complex formation with metal to occur. […] It is usually (by not universally) desirable to stay below pH 9.0 to allow chelate stability under physiological assay conditions.

[2] = pKa of the enolic carbon of the β-diketone ligands; conditions: β-diketone ligand
Source text: as §1

O=C(CC(=O)c1ccc2ccccc2c1)c1cc(F)cc(F)c1 [compound 4]
pH above which a stable chelate is formed [1]: > 4.5 pH
pKa for the enolic carbon [2]: ~4.2
